Patent publication US20100279941A1, “CD36 MODULATION AND USES THEREOF” (priority 2009, published 2010)

What was measured:
[1] = tested on: CD36^+/+ and CD36^−/− mice; experiment: Myocardial NEFA uptake by μPET with [18F]-FTHA; assay type: in vivo; settings: 6 hours reperfusion, in words
Experimental: (§1) Experimental model of IHD: Transient left coronary artery ligation in vivo. Mice were subjected to a transient LCAL surgery as described before, with minor modifications [Tarnayski et al., 2004]. Mice were injected i.p. with buprenorphine (0.05 mg/kg) and placed in an induction chamber with inhalation anesthesia comprised of 3% isoflurane mixed with 100% oxygen. Mice were intubated with a blunt ended 20-gauge catheter into the trachea via the mouth and mechanically ventilated at a tidal volume of 7 ml/kg at 130 respirations/min with a MiniVent™ mouse ventilator (model 845, Harvard Apparatus, Saint-Laurent, QC, Canada). Anesthesia was maintained with 1.5-2% isoflurane and the animals were kept warm using electrical heating pads during the surgical procedure. The chest was opened by a horizontal incision through the skin and muscle layers at the third intercostal space exposing the left side of the heart. […] Visual blanching distal to the coronary occlusion confirmed myocardial ischaemia. Lidocaine (6 mg/kg) was administered i.p. just following occlusion and prior to reperfusion. After 30 minutes, the PE10 tubing was removed allowing reperfusion. The lungs were reinflated and the chest wound closed layer by layer before extubation. At 6 hours following reperfusion, mice were anesthetized (isoflurane), a blood sample withdrawn, and the heart arrested in diastole by an intravenous injection of 1 M KCl (0.5 mL). Hearts were immediately frozen at −80° C. unless otherwise stated.
Imaging experiments. Imaging experiments were performed with the avalanche photodiode-based small animal PET scanner (μPET) [Lecomte et al., 1996]. […]
Imaging Data Analysis. For [^11C]-acetate images, dynamic series of 25 frames each were sorted out whereas 27 frames were used for ^18FDG and ^18FTHA imaging, and were reconstructed and analyzed using multicompartmental analysis [Menard et al., 2009] or the Patlak method for FTHA [Patlak and Blasberg, 1985]. […]
Plasma and tissue assays. Plasma insulin, triglyceride (TG) and NEFA levels were measured as previously described [Menard et al., 2009]. […]

[2] = Plasma cholesterol, triglyceride, NEFA and glycemia after myocardial ischaemia-reperfusion; assay type: in vivo, mice; settings: for Triglyceride / Glycemia Post-Reperfusion / Total Cholesterol / Glycemia Before Ischemia: 300 μg/kg/day for 2 weeks; for Triglyceride: mean ± S.E.M.; for Glycemia Post-Reperfusion / Total Cholesterol / Glycemia Before Ischemia: mean ± S.E.M. (n)
From the text: Animals. CD36^−/− mice were generated by targeted homologous recombination and backcrossed six times to C57BI/6. Wild-type control littermates (CD36^+/+) were bred from the same cross and were therefore of identical genetic background [Febbraio et al., 2000]. Male mice, aged 23 (±1) weeks, were used for experiments. They were fed standard chow (#5075, Charles Rivers, Saint-Constant, Québec, Canada) and water ad libitum, and housed singly during treatment periods (2 or 10 weeks). Daily pharmacological treatments with 300 μg/kg of EP 80317 or CP1A(IV) or vehicle (0.9% NaCl) were done by subcutaneous (s.c.) injections.
as §1, with “At 6 hours following reperfusion, mice were anesthetized (isoflurane), a blood sample withdrawn, and the heart arrested in diastole by an intravenous injection of 1 M KCl (0.5 mL).” left out, “stated. […]” for “stated.”
Plasma and tissue assays. Plasma insulin, triglyceride (TG) and NEFA levels were measured as previously described [Menard et al., 2009]. In vitro lipolysis was prevented by collecting blood in the presence of 40 mM Orlistat (Calbiochem, San Diego, Calif., USA) and centrifuging rapidly. Plasma and tissue lipids were extracted according to the method described by Folch et al. [Folch et al., 1957]. The non-metabolized fraction of [^18F]-FTHA in plasma was determined using thin-layer chromatography from blood samples taken 2, 3, 5, 10, and 30 min after FTHA injection, and the metabolite corrected plasma curve was calculated by linear interpolation and used to correct the plasma input function (modified from [Ci et al., 2006]). Myocardial mitochondria were extracted with measurement of GDH activity to correct for extraction efficiency [Menard et al., 2009].

[3] = 6 h post-reperfusion, CD36^+/+ mice
[4] = 6 h post-reperfusion, CD36^−/− mice
[5] = 48 h post-reperfusion, CD36^+/+ mice
[6] = 48 h post-reperfusion, CD36^−/− mice

Substance: HAIC-2MeDTrp-DLys-Trp-DPhe-Lys-NH2 [EP 80317]
- total plasma NEFA uptake (Km) ([1]; CD36^+/+ mice): reduced
- mean fractional uptake rate (Ki) of plasma NEFA ([1]; CD36^+/+ or CD36^−/− mice): not affected
- net fatty acid uptake (Km) ([1]; CD36^−/− mice): not modulated
- effect on plasma TG ([2]; 6 or 48 hours following reperfusion, both CD36^+/+ and CD36^−/− mice, in words): did not modulate
- attenuation of plasma NEFA elevation ([2]; 6 hours after reperfusion, CD36-dependent (CD36^+/+ mice), p<0.05 vs vehicle): 29%
- Triglyceride [2, 3]: 0.35 ± 0.04 mmol/L
- Glycemia Post-Reperfusion [2, 3]: 13.6 ± 1.2 (20) mmol/L
- Total Cholesterol [2, 3]: 1.4 ± 0.3 (4) mmol/L
- Triglyceride [2, 4]: 0.58 ± 0.16 mmol/L
- Glycemia Post-Reperfusion [2, 4]: 8.8 ± 0.6 (17) mmol/L
- Total Cholesterol [2, 4]: 1.9 ± 0.1 (5) mmol/L
- effect on plasma NEFA levels ([2]; 48 hours after reperfusion, in words): no effect
- Triglyceride [2, 5]: 0.44 ± 0.03 mmol/L
- Total Cholesterol [2, 5]: 1.5 ± 0.03 (6) mmol/L
- Triglyceride [2, 6]: 0.55 ± 0.06 mmol/L
- Total Cholesterol [2, 6]: 2.5 ± 0.2 (4) mmol/L
- Glycemia Before Ischemia ([2]; CD36^+/+ mice): 10.6 ± 0.4 (15) mmol/L
- Glycemia Before Ischemia ([2]; CD36^−/− mice): 9.3 ± 0.5 (8) mmol/L
